Reference: patent US11951109B2, “EZH2 inhibitors for treating lymphoma” (Epizyme, Inc., priority 2015, dated 2024)

Key:
RC-K8 = assay: Combination of EPZ-6438 and other therapeutic agents (4+3 model), RC-K8; conditions: WT EXH2 ABC
OCI-LY7 = assay: Combination of EPZ-6438 and other therapeutic agents (4+3 model), OCI-LY7; conditions: WT EZH2 GCB
OCI-LY3 = assay: Combination of EPZ-6438 and other therapeutic agents (4+3 model), OCI-LY3; conditions: WT EXH2 ABC
SU-DHL-6 = assay: Combination of EPZ-6438 and other therapeutic agents (4+3 model), SU-DHL-6; conditions: Mutant EZH2 GCB
OCI-LY19 = assay: Combination of EPZ-6438 and other therapeutic agents (4+3 model), OCI-LY19; conditions: WT EZH2 GCB; 4+3 model
WSU-DLCL2 = assay: Combination of EPZ-6438 and other therapeutic agents (4+3 model), WSU-DLCL2; conditions: Mutant EZH2 GCB; EPZ-6438 4 days then co-treatment 3 days (4+3 model)
SU-DHL-10 = assay: Combination of EPZ-6438 and other therapeutic agents (4+3 model), SU-DHL-10; conditions: Mutant EZH2 GCB
KARPAS-422 = assay: Combination of EPZ-6438 and other therapeutic agents (4+3 model), KARPAS-422; conditions: Mutant EZH2 GCB
HT = assay: Combination of EPZ-6438 and other therapeutic agents (4+3 model), HT; conditions: WT EZH2 GCB
TMD8 = assay: Combination of EPZ-6438 and other therapeutic agents (4+3 model), TMD8; conditions: WT EXH2 ABC
SUDHL5 = assay: Combination of EPZ-6438 and other therapeutic agents (4+3 model), SUDHL5; conditions: WT EZH2 GCB
Farage = assay: Combination of EPZ-6438 and other therapeutic agents (4+3 model), Farage; conditions: WT EZH2 GCB
DOHH2 = assay: Combination of EPZ-6438 and other therapeutic agents (4+3 model), DOHH2; type: cell-based; conditions: WT EZH2 GCB
SUDHL2 = assay: Combination of EPZ-6438 and other therapeutic agents (4+3 model), SUDHL2; conditions: WT EXH2 ABC

| Molecule | combination effect with EPZ-6438, SU-DHL-6 (SU-DHL-6) | combination effect with EPZ-6438, WSU-DLCL2 (WSU-DLCL2) | combination effect with EPZ-6438, SU-DHL-10 (SU-DHL-10) | combination effect with EPZ-6438, KARPAS-422 (KARPAS-422) | combination effect with EPZ-6438, SUDHL5 (SUDHL5) | also measured |
| --- | --- | --- | --- | --- | --- | --- |
| CC1(C)CCC(c2ccc(Cl)cc2)=C(CN2CCN(c3ccc(C(=O)NS(=O)(=O)c4ccc(N[C@H](CCN5CCOCC5)CSc5ccccc5)c(S(=O)(=O)C(F)(F)F)c4)cc3)CC2)C1 [Navitoclax] | S | S | S | S |  | combination effect with EPZ-6438, RC-K8 (RC-K8): S; combination effect with EPZ-6438, OCI-LY7 (OCI-LY7): S; combination effect with EPZ-6438, OCI-LY3 (OCI-LY3): S; combination effect with EPZ-6438, OCI-LY19 (OCI-LY19): S |
| CC1(C)CCC(CN2CCN(c3ccc(C(=O)NS(=O)(=O)c4ccc(NCC5CCOCC5)c([N+](=O)[O-])c4)c(Oc4cnc5[nH]ccc5c4)c3)CC2)=C(c2ccc(Cl)cc2)C1 [ABT-199] | ADD. | S | ADD. | S |  | combination effect with EPZ-6438, RC-K8 (RC-K8): S; combination effect with EPZ-6438, OCI-LY3 (OCI-LY3): S; combination effect with EPZ-6438, OCI-LY19 (OCI-LY19): S |
| Rituximab: therapeutic agent combined with EPZ-6438; component of R-CHOP | S | S |  |  |  |  |
| NC1(c2ccc(-c3nc4ccn5c(=O)[nH]nc5c4cc3-c3ccccc3)cc2)CCC1 [MK-2206] | S | S | S | S | S | combination effect with EPZ-6438, HT (HT): S; combination effect with EPZ-6438, TMD8 (TMD8): S; combination effect with EPZ-6438, RC-K8 (RC-K8): S; combination effect with EPZ-6438, Farage (Farage): S; combination effect with EPZ-6438, OCI-LY7 (OCI-LY7): S; combination effect with EPZ-6438, OCI-LY3 (OCI-LY3): S; combination effect with EPZ-6438, OCI-LY19 (OCI-LY19): S |
| Nc1cccc2c1CN(C1CCC(=O)NC1=O)C2=O (stereo not shown) [Lenalidomide] |  |  |  |  |  | combination effect with EPZ-6438, RC-K8 (RC-K8): S |
| COc1cc(Nc2ncc3c(n2)-c2ccc(Cl)cc2C(c2c(F)cccc2OC)=NC3)ccc1C(=O)O [Alisertib] |  | ADD. | ADD. |  | ADD. |  |
| CN(Cc1cnc2nc(N)nc(N)c2n1)c1ccc(C(=O)N[C@@H](CCC(=O)O)C(=O)O)cc1 [Methotrexate] |  | ANTAG. |  |  |  | combination effect with EPZ-6438, DOHH2 (DOHH2): ANTAG.; combination effect with EPZ-6438, RC-K8 (RC-K8): ANTAG.; combination effect with EPZ-6438, SUDHL2 (SUDHL2): ANTAG.; combination effect with EPZ-6438, OCI-LY19 (OCI-LY19): ANTAG. |
| Cc1cnc(Nc2ccc(OCCN3CCCC3)cc2)nc1Nc1cccc(S(=O)(=O)NC(C)(C)C)c1 [Fedratinib] |  |  |  |  |  | combination effect with EPZ-6438, SUDHL2 (SUDHL2): ADD. |
| CC(=O)Nc1cccc(-n2c(=O)n(C3CC3)c(=O)c3c(Nc4ccc(I)cc4F)n(C)c(=O)c(C)c32)c1 [Trametinib] | S | S | S | S | S | combination effect with EPZ-6438, TMD8 (TMD8): S; combination effect with EPZ-6438, Farage (Farage): S; combination effect with EPZ-6438, OCI-LY7 (OCI-LY7): S; combination effect with EPZ-6438, OCI-LY3 (OCI-LY3): S |
| CC[C@H](Nc1ncnc2[nH]cnc12)c1nc2cccc(F)c2c(=O)n1-c1ccccc1 [Idelalisib] | S | S | S | S | S | combination effect with EPZ-6438, HT (HT): S; combination effect with EPZ-6438, TMD8 (TMD8): S; combination effect with EPZ-6438, RC-K8 (RC-K8): S; combination effect with EPZ-6438, Farage (Farage): S; combination effect with EPZ-6438, OCI-LY7 (OCI-LY7): S; combination effect with EPZ-6438, OCI-LY3 (OCI-LY3): S |
| COc1cc([C@@H]2c3cc4c(cc3[C@@H](O[C@@H]3O[C@@H]5CO[C@@H](C)O[C@H]5[C@H](O)[C@H]3O)[C@H]3COC(=O)[C@H]23)OCO4)cc(OC)c1O [Etoposide] |  | S |  | S | S |  |
| Cc1sc2c(c1C)C(c1ccc(Cl)cc1)=N[C@@H](CC(=O)OC(C)(C)C)c1nnc(C)n1-2 [JQ1] | S | S |  | S |  | combination effect with EPZ-6438, RC-K8 (RC-K8): S; combination effect with EPZ-6438, SUDHL2 (SUDHL2): S; combination effect with EPZ-6438, OCI-LY19 (OCI-LY19): S |
| CC(=O)c1c(C)c2cnc(Nc3ccc(N4CCNCC4)cn3)nc2n(C2CCCC2)c1=O [Palbociclib] |  | S |  | S | S |  |
| OG-L002 |  |  |  |  |  | combination effect with EPZ-6438, SUDHL2 (SUDHL2): ANTAG. |
| Cc1nc(Nc2ncc(C(=O)Nc3c(C)cccc3Cl)s2)cc(N2CCN(CCO)CC2)n1 [Dasatinib] |  | S | S |  | S | combination effect with EPZ-6438, TMD8 (TMD8): S |
| CCn1cc(-c2ccnc3[nH]c(-c4cccc(CN(C)C)c4)cc23)c(-c2ccc(NC(=O)N(C)C)cc2)n1 [GSK1070916] |  | S | ADD. |  |  |  |
| CCCS(=O)(=O)Nc1ccc(F)c(C(=O)c2c[nH]c3ncc(-c4ccc(Cl)cc4)cc23)c1F [Vemurafenib] |  | ADD. |  |  |  |  |
| COc1ncc(-c2ccc3nccc(-c4ccnnc4)c3c2)cc1NS(=O)(=O)c1ccc(F)cc1F [GSK2126458, Omipalisib] |  | S |  | S | S |  |
| N#CC[C@H](C1CCCC1)n1cc(-c2ncnc3[nH]ccc23)cn1 [Ruxolitinib] |  |  | S |  |  | combination effect with EPZ-6438, TMD8 (TMD8): S |
| CCOC(=O)CCNc1cc(N2CCc3ccccc3CC2)nc(-c2ccccn2)n1 [GSK J4] | ADD. | ADD. |  |  |  | combination effect with EPZ-6438, DOHH2 (DOHH2): ADD.; combination effect with EPZ-6438, RC-K8 (RC-K8): ADD.; combination effect with EPZ-6438, SUDHL2 (SUDHL2): ADD.; combination effect with EPZ-6438, OCI-LY19 (OCI-LY19): ADD. |
| CCn1c(-c2nonc2N)nc2c(C#CC(C)(C)O)ncc(OC[C@H]3CCCNC3)c21 [GSK690693] |  | S |  | S | S |  |
| COc1cc(Nc2ncc(F)c(Nc3ccc4c(n3)NC(=O)C(C)(C)O4)n2)cc(OC)c1OC [Tamatinib] | S | S | S | S | S | combination effect with EPZ-6438, HT (HT): S; combination effect with EPZ-6438, TMD8 (TMD8): S; combination effect with EPZ-6438, Farage (Farage): S; combination effect with EPZ-6438, SUDHL2 (SUDHL2): S; combination effect with EPZ-6438, OCI-LY7 (OCI-LY7): S; combination effect with EPZ-6438, OCI-LY3 (OCI-LY3): S |
| CNC(=O)c1cc(Oc2ccc(NC(=O)Nc3ccc(Cl)c(C(F)(F)F)c3)cc2)ccn1 [Sorafenib] |  | ADD. |  |  |  |  |
| COC1=CC(c2cc3ccccc3[nH]2)=N/C1=C\c1[nH]c(C)cc1C [Obatoclax] | ADD. | ADD. | ADD. | S |  |  |
| CN(C)C(=O)c1cc2cnc(Nc3ccc(N4CCNCC4)cn3)nc2n1C1CCCC1 [Ribociclib] |  | S |  | S | S |  |
| CC(C)C[C@H](NC(=O)[C@H](Cc1ccccc1)NC(=O)c1cnccn1)B(O)O [Velcade] | ADD. | ADD. | ADD. |  |  |  |
| CC(C)NC[C@@H](C(=O)N1CCN(c2ncnc3c2[C@H](C)C[C@H]3O)CC1)c1ccc(Cl)cc1 [GDC0068, Ipatasertib] |  | S |  | S | S |  |
| Cn1cc(C2=C(c3cn(C4CCN(Cc5ccccn5)CC4)c4ccccc34)C(=O)NC2=O)c2ccccc21 [Enzastaurin] |  | ADD. | S |  | ADD. |  |
